Measured values taken from PMC10001106, “A New Bloody Pulp Selection of Myrobalan (Prunus cerasifera L.): Pomological Traits, Chemical Composition, and Nutraceutical Properties” (Foods, 2023).

How the values were obtained:
Settings in all cases: mean ± SD, n = 3
[1] = DPPH radical scavenging test
Experimental: (§1) All the procedures were previously detailed. The Relative Antioxidant Capacity Index (RACI) was applied to evaluate the sample characterized by the highest activity. Linear regression, assessment of repeatability, calculation of average, relative standard deviation (SD), and Pearson’s correlation coefficient (r) were calculated by using Microsoft Excel 2010 software (Redmond, WA, USA). The results were expressed as the means of three different experiments ± SD.

[2] = ABTS radical scavenging test
Experimental: as §1

[3] = β-carotene bleaching test
Experimental: as §1

SMILES	DPPH Test (IC50) [1] [µg/mL]	ABTS Test (IC50) [2] [µg/mL]	β-Carotene Bleaching Test (IC50) [3] [µg/mL]
O=C1O[C@H]([C@@H](O)CO)C(O)=C1O [Ascorbic acid]	5.04 ± 0.81	1.72 ± 0.14	
CCCOC(=O)c1cc(O)c(O)c(O)c1 [Propyl gallate]			0.09 ± 0.04
